Experiments:
[1] = system: late watergrass; test: Test Example 2: herbicidal activity, application during weed generation under submerged conditions (Table 17, symbol A); format: in vivo, late watergrass (Echinochloa oryzicola); details: AAH 320 g/ha; application during weed generation, submerged conditions
Summary of the method: (§1)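 Effect on each weed is rated three weeks post-treatment, using the same scoring criteria as the preceding test. Plants grow from mixed-sown seed in flooded alluvial soil (4 cm water) at 25° C. to 30° C., and are treated at one to two leaves with diluted emulsion dropped onto the water.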

[2] = system: barnyard grass; test: Test Example 3: herbicidal effect by foliage application, Wagner pot (Table 18, symbol H); format: in vivo, barnyard grass (Echinochloa crus-galli); details: 320 g/ha
Summary of the method: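 Plants were sown in alluvial soil held under 0.1–0.5 cm standing water and grown 14 days in a greenhouse at 25–30 °C. An emulsifiable formulation, water-diluted to the set dose, was then sprayed onto the foliage, and effects were scored three weeks later using previously defined criteria.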

[3] = system: green foxtail; test: Test Example 5: herbicidal effect by foliage application, plastic box (Table 20, symbol G); format: in vivo, green foxtail (Setaria viridis); details: 320 g/ha; for G: green foxtail, herbicidal effect grade: foliage application, three weeks after application; for herbicidal effect on G: green foxtail (evaluation grade 0-5): foliage application after 14-day growth, evaluated three weeks after application
Summary of the method: (§2)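 Foliar spray test: emulsion formulation diluted in water to a set application rate, sprayed onto 14-day-old plants raised in diluvial soil at 25° C to 30° C under glass. Both herbicidal effect and crop effect rated visually three weeks later.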

[4] = system: velvetleaf; test: Test Example 5: herbicidal effect by foliage application, plastic box (Table 20, symbol M); format: in vivo, velvetleaf (Abutilon theophrasti); details: 320 g/ha; for M: velvetleaf, herbicidal effect grade: foliage application, three weeks after application; for herbicidal effect on M: velvetleaf (evaluation grade 0-5): foliage application after 14-day growth, evaluated three weeks after application
Summary of the method: as §2

[5] = system: Italian ryegrass; test: Test Example 5: herbicidal effect by foliage application, plastic box (Table 20, symbol K); format: in vivo, Italian ryegrass (Lolium multiflorum); details: 320 g/ha; for K: Italian ryegrass, herbicidal effect grade: foliage application, three weeks after application; for herbicidal effect on K: Italian ryegrass (evaluation grade 0-5): foliage application after 14-day growth, evaluated three weeks after application
Summary of the method: as §2

[6] = system: lambsquarters; test: Test Example 4: herbicidal effect by soil treatment (Table 19, symbol O); format: in vivo, lambsquarters (Chenopodium album); details: amount of applied herbicide 320 g/ha
Summary of the method: (§3)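 Step 1: sow seeds in sterilized diluvial soil, cover ~1.5 cm. Step 2: spray diluted emulsion onto soil surface at predetermined rate. Step 3: greenhouse, 25–30° C, three weeks. Step 4: grade effect on each plant by earlier criteria.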

[7] = system: southern crabgrass; test: Test Example 4: herbicidal effect by soil treatment (Table 19, symbol F); format: in vivo, southern crabgrass (Digitaria ciliaris); details: amount of applied herbicide 320 g/ha
Summary of the method: as §3

[8] = system: oval-leafed pondweed; test: Test Example 2: herbicidal activity, application during weed generation under submerged conditions (Table 17, symbol C); format: in vivo, oval-leafed pondweed (Monochoria vaginalis); details: AAH 320 g/ha; application during weed generation, submerged conditions
Summary of the method: as §1

[9] = system: chickweed; test: Test Example 5: herbicidal effect by foliage application, plastic box (Table 20, symbol P); format: in vivo, common chickweed (Stellaria media); details: 320 g/ha; for P: chickweed, herbicidal effect grade: foliage application, three weeks after application; for herbicidal effect on P: chickweed (evaluation grade 0-5): foliage application after 14-day growth, evaluated three weeks after application
Summary of the method: as §2

[10] = system: late watergrass; test: Test Example 1: herbicidal activity, application before weed generation under submerged conditions (Table 16, symbol A); format: in vivo, late watergrass (Echinochloa oryzicola); details: amount of applied herbicide 320 g/ha
Summary of the method: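 Alluvial soil was flooded to 4 cm depth, weed seeds were sown mixed and 2.5-leaf rice seedlings were transplanted. On sowing day, the compound's emulsion, diluted in water to a set dose, was applied to the water surface. Plants grew at 25–30 °C and were scored 0–5 after three weeks.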

[11] = system: barnyard grass; test: Test Example 5: herbicidal effect by foliage application, plastic box (Table 20, symbol H); format: in vivo, barnyard grass (Echinochloa crus-galli); details: 320 g/ha; for H: barnyard grass, herbicidal effect grade: foliage application, three weeks after application; for herbicidal effect on H: barnyard grass (evaluation grade 0-5): foliage application after 14-day growth, evaluated three weeks after application
Summary of the method: as §2

[12] = system: barnyard grass; test: Test Example 4: herbicidal effect by soil treatment (Table 19, symbol H); format: in vivo, barnyard grass (Echinochloa crus-galli); details: amount of applied herbicide 320 g/ha
Summary of the method: as §3

[13] = system: blackgrass; test: Test Example 4: herbicidal effect by soil treatment (Table 19, symbol J); format: in vivo, blackgrass (Alopecurus myosuroides); details: amount of applied herbicide 320 g/ha
Summary of the method: as §3

[14] = system: persian speedwell; test: Test Example 4: herbicidal effect by soil treatment (Table 19, symbol R); format: in vivo, Persian speedwell (Veronica persica); details: amount of applied herbicide 320 g/ha
Summary of the method: as §3

[15] = system: velvetleaf; test: Test Example 4: herbicidal effect by soil treatment (Table 19, symbol M); format: in vivo, velvetleaf (Abutilon theophrasti); details: amount of applied herbicide 320 g/ha
Summary of the method: as §3

[16] = system: blackgrass; test: Test Example 5: herbicidal effect by foliage application, plastic box (Table 20, symbol J); format: in vivo, blackgrass (Alopecurus myosuroides); details: 320 g/ha; for J: blackgrass, herbicidal effect grade: foliage application, three weeks after application; for herbicidal effect on J: blackgrass (evaluation grade 0-5): foliage application after 14-day growth, evaluated three weeks after application
Summary of the method: as §2

CCOc1ccccc1-c1sc2cc(OCCOC)ccc2c1-c1c(O)c(C)nn(C)c1=O [3-123]
herbicidal effect rating, A: late watergrass [1]: 3 (Herbicidal rate of 40% or more and less than 70%)
herbicidal effect on barnyard grass (H) [2]: 5 (Herbicidal rate of 90% or more (almost completely withered))
G: green foxtail, herbicidal effect grade [3]: 5 (Herbicidal rate of 90% or more (almost completely withered))
M: velvetleaf, herbicidal effect grade [4]: 5 (Herbicidal rate of 90% or more (almost completely withered))
K: Italian ryegrass, herbicidal effect grade [5]: 5 (Herbicidal rate of 90% or more (almost completely withered))
O: lambsquarters, herbicidal effect grade [6]: 5 (Herbicidal rate of 90% or more (almost completely withered))
F: southern crabgrass, herbicidal effect grade [7]: 5 (Herbicidal rate of 90% or more (almost completely withered))
herbicidal effect rating, C: oval-leafed pondweed [8]: 2 (Herbicidal rate of 20% or more and less than 40%)
P: chickweed, herbicidal effect grade [9]: 5 (Herbicidal rate of 90% or more (almost completely withered))
Herbicidal effect, A: late watergrass [10]: 5 (Herbicidal rate of 90% or more (almost completely withered))
H: barnyard grass, herbicidal effect grade [11]: 5 (Herbicidal rate of 90% or more (almost completely withered))
H: barnyard grass, herbicidal effect grade [12]: 5 (Herbicidal rate of 90% or more (almost completely withered))
J: blackgrass, herbicidal effect grade [13]: 4 (Herbicidal rate of 70% or more and less than 90%)
R: persian speedwell, herbicidal effect grade [14]: 5 (Herbicidal rate of 90% or more (almost completely withered))
M: velvetleaf, herbicidal effect grade [15]: 2 (Herbicidal rate of 20% or more and less than 40%)
J: blackgrass, herbicidal effect grade [16]: 5 (Herbicidal rate of 90% or more (almost completely withered))

COc1ccccc1-c1sc2cc(OCCSC)ccc2c1-c1c(O)c(C)nn(C)c1=O [3-125]
herbicidal effect rating, A: late watergrass [1]: 0 (Herbicidal rate of 5% or less (almost no effect))
herbicidal effect on barnyard grass (H) [2]: 5 (Herbicidal rate of 90% or more (almost completely withered))
G: green foxtail, herbicidal effect grade [3]: 5 (Herbicidal rate of 90% or more (almost completely withered))
M: velvetleaf, herbicidal effect grade [4]: 4 (Herbicidal rate of 70% or more and less than 90%)
K: Italian ryegrass, herbicidal effect grade [5]: 5 (Herbicidal rate of 90% or more (almost completely withered))
O: lambsquarters, herbicidal effect grade [6]: 5 (Herbicidal rate of 90% or more (almost completely withered))
F: southern crabgrass, herbicidal effect grade [7]: 3 (Herbicidal rate of 40% or more and less than 70%)
herbicidal effect rating, C: oval-leafed pondweed [8]: 3 (Herbicidal rate of 40% or more and less than 70%)
P: chickweed, herbicidal effect grade [9]: 5 (Herbicidal rate of 90% or more (almost completely withered))
Herbicidal effect, A: late watergrass [10]: 3 (Herbicidal rate of 40% or more and less than 70%)
H: barnyard grass, herbicidal effect grade [11]: 3 (Herbicidal rate of 40% or more and less than 70%)
H: barnyard grass, herbicidal effect grade [12]: 0 (Herbicidal rate of 5% or less (almost no effect))
J: blackgrass, herbicidal effect grade [13]: 5 (Herbicidal rate of 90% or more (almost completely withered))
R: persian speedwell, herbicidal effect grade [14]: 5 (Herbicidal rate of 90% or more (almost completely withered))
M: velvetleaf, herbicidal effect grade [15]: 4 (Herbicidal rate of 70% or more and less than 90%)
J: blackgrass, herbicidal effect grade [16]: 5 (Herbicidal rate of 90% or more (almost completely withered))

C=C(C)C(=O)Oc1c(C)nn(C)c(=O)c1-c1c(-c2ccccc2OC)sc2cc(OC)ccc12 [3-155]
herbicidal effect rating, A: late watergrass [1]: 5 (Herbicidal rate of 90% or more (almost completely withered))
herbicidal effect on barnyard grass (H) [2]: 5 (Herbicidal rate of 90% or more (almost completely withered))
herbicidal effect on G: green foxtail (evaluation grade 0-5) [3]: 5 (Herbicidal rate of 90% or more (almost completely withered))
herbicidal effect on M: velvetleaf (evaluation grade 0-5) [4]: 5 (Herbicidal rate of 90% or more (almost completely withered))
herbicidal effect on K: Italian ryegrass (evaluation grade 0-5) [5]: 4 (Herbicidal rate of 70% or more and less than 90%)
Herbicidal effect by soil treatment, O: lambsquarters [6]: 0 (Herbicidal rate of 5% or less (almost no effect))
Herbicidal effect by soil treatment, F: southern crabgrass [7]: 0 (Herbicidal rate of 5% or less (almost no effect))
herbicidal effect rating, C: oval-leafed pondweed [8]: 5 (Herbicidal rate of 90% or more (almost completely withered))
herbicidal effect on P: chickweed (evaluation grade 0-5) [9]: 5 (Herbicidal rate of 90% or more (almost completely withered))
Herbicidal effect, A: late watergrass [10]: 5 (Herbicidal rate of 90% or more (almost completely withered))
herbicidal effect on H: barnyard grass (evaluation grade 0-5) [11]: 5 (Herbicidal rate of 90% or more (almost completely withered))
Herbicidal effect by soil treatment, H: barnyard grass [12]: 2 (Herbicidal rate of 20% or more and less than 40%)
Herbicidal effect by soil treatment, J: blackgrass [13]: 4 (Herbicidal rate of 70% or more and less than 90%)
Herbicidal effect by soil treatment, R: persian speedwell [14]: 0 (Herbicidal rate of 5% or less (almost no effect))
Herbicidal effect by soil treatment, M: velvetleaf [15]: 0 (Herbicidal rate of 5% or less (almost no effect))
herbicidal effect on J: blackgrass (evaluation grade 0-5) [16]: 5 (Herbicidal rate of 90% or more (almost completely withered))

COc1ccc2c(-c3c(OC(=O)c4ccccc4OC)c(C)nn(C)c3=O)c(-c3ccccc3OC)sc2c1 [3-158]
herbicidal effect rating, A: late watergrass [1]: 4 (Herbicidal rate of 70% or more and less than 90%)
herbicidal effect on barnyard grass (H) [2]: 5 (Herbicidal rate of 90% or more (almost completely withered))
herbicidal effect on G: green foxtail (evaluation grade 0-5) [3]: 5 (Herbicidal rate of 90% or more (almost completely withered))
herbicidal effect on M: velvetleaf (evaluation grade 0-5) [4]: 5 (Herbicidal rate of 90% or more (almost completely withered))
herbicidal effect on K: Italian ryegrass (evaluation grade 0-5) [5]: 4 (Herbicidal rate of 70% or more and less than 90%)
Herbicidal effect by soil treatment, O: lambsquarters [6]: 0 (Herbicidal rate of 5% or less (almost no effect))
Herbicidal effect by soil treatment, F: southern crabgrass [7]: 0 (Herbicidal rate of 5% or less (almost no effect))
herbicidal effect rating, C: oval-leafed pondweed [8]: 5 (Herbicidal rate of 90% or more (almost completely withered))
herbicidal effect on P: chickweed (evaluation grade 0-5) [9]: 5 (Herbicidal rate of 90% or more (almost completely withered))
Herbicidal effect, A: late watergrass [10]: 5 (Herbicidal rate of 90% or more (almost completely withered))
herbicidal effect on H: barnyard grass (evaluation grade 0-5) [11]: 5 (Herbicidal rate of 90% or more (almost completely withered))
Herbicidal effect by soil treatment, H: barnyard grass [12]: 0 (Herbicidal rate of 5% or less (almost no effect))
Herbicidal effect by soil treatment, J: blackgrass [13]: 0 (Herbicidal rate of 5% or less (almost no effect))
Herbicidal effect by soil treatment, R: persian speedwell [14]: 0 (Herbicidal rate of 5% or less (almost no effect))
Herbicidal effect by soil treatment, M: velvetleaf [15]: 0 (Herbicidal rate of 5% or less (almost no effect))
herbicidal effect on J: blackgrass (evaluation grade 0-5) [16]: 5 (Herbicidal rate of 90% or more (almost completely withered))
